Data published in article PMC3969223, “Characterization of WZ4003 and HTH-01-015 as selective inhibitors of the LKB1-tumour-suppressor-activated NUAK kinases” (Biochemical Journal, 2013).

Columns and labels:
Type in all cases: biochemical
[1] = system: panel of 140 protein kinases; assay: Protein kinase profiling, whole panel; settings: 1 μM, panel of 140 kinases
Method: (§1) Kinase inhibitor specificity profiling assays were carried out at The International Centre for Protein Kinase Profiling (http://www.kinase-screen.mrc.ac.uk/) against a panel of 140 protein kinases as described previously. Results are presented as a percentage of kinase activity in DMSO control reactions. Protein kinases were assayed in vitro with 0.1 or 1 μM of the inhibitors and the results are presented as an average of triplicate reactions±S.D. or in the form of comparative histograms.

AMPK = assay: Kinase profiling
Method: as §1

ASK1 = ASK1 (Homo sapiens, UniProt Q99683); assay: Kinase profiling; settings: 0.1 or 1 μM inhibitor; mean of triplicate
Method: as §1

CAMKKβ = CAMKKβ (Homo sapiens, UniProt Q96RR4); assay: Kinase profiling; settings: 0.1 or 1 μM inhibitor; mean of triplicate
Method: as §1

EPH-B1 = EPH-B1 (Homo sapiens, UniProt P54762); assay: Kinase profiling; settings: 0.1 or 1 μM inhibitor; mean of triplicate
Method: as §1

FGF-R1 = FGF-R1 (Homo sapiens, UniProt P11362); assay: Kinase profiling; settings: 0.1 or 1 μM inhibitor; mean of triplicate
Method: as §1

HIPK1 = HIPK1 (Homo sapiens, UniProt Q86Z02); assay: Kinase profiling; settings: 0.1 or 1 μM inhibitor; mean of triplicate
Method: as §1

HIPK3 = HIPK3 (Homo sapiens, UniProt Q9H422); assay: Kinase profiling; settings: 0.1 or 1 μM inhibitor; mean of triplicate
Method: as §1

IGF-1R = IGF-1R (Homo sapiens, UniProt P08069); assay: Kinase profiling; settings: 0.1 or 1 μM inhibitor; mean of triplicate
Method: as §1

IKKε = IKKε (Homo sapiens, UniProt Q14164); assay: Kinase profiling; settings: 0.1 or 1 μM inhibitor; mean of triplicate
Method: as §1

IRAK4 = IRAK4 (Homo sapiens, UniProt Q9NWZ3); assay: Kinase profiling; settings: 0.1 or 1 μM inhibitor; mean of triplicate
Method: as §1

MAP4K3 = MAP4K3 (Homo sapiens, UniProt Q8IVH8); assay: Kinase profiling; settings: 0.1 or 1 μM inhibitor; mean of triplicate
Method: as §1

MAP4K5 = MAP4K5 (Homo sapiens, UniProt Q9Y4K4); assay: Kinase profiling; settings: 0.1 or 1 μM inhibitor; mean of triplicate
Method: as §1

MEKK1 = MEKK1 (Homo sapiens, UniProt Q13233); assay: Kinase profiling; settings: 0.1 or 1 μM inhibitor; mean of triplicate
Method: as §1

MKK1 = MKK1 (Homo sapiens, UniProt Q02750); assay: Kinase profiling; settings: 0.1 or 1 μM inhibitor; mean of triplicate
Method: as §1

MLK1 = MLK1 (Homo sapiens, UniProt P80192); assay: Kinase profiling; settings: 0.1 or 1 μM inhibitor; mean of triplicate
Method: as §1

MNK1 = MNK1 (Homo sapiens, UniProt Q9BUB5); assay: Kinase profiling; settings: 0.1 or 1 μM inhibitor; mean of triplicate
Method: as §1

MPSK1 = MPSK1 (Homo sapiens, UniProt O75716); assay: Kinase profiling; settings: 0.1 or 1 μM inhibitor; mean of triplicate
Method: as §1

NEK6 = NEK6 (Homo sapiens, UniProt Q9HC98); assay: Kinase profiling; settings: 0.1 or 1 μM inhibitor; mean of triplicate
Method: as §1

NUAK1 = molecular target: T1, NUAK1 (Homo sapiens, UniProt O60285); assay: Kinase profiling; settings: 0.1 or 1 μM inhibitor; mean of triplicate
T1 construct: made in house; host or cells: HEK-293 cells, transient transfection of pEBG2T construct
T1 sequence (O60285 1-661): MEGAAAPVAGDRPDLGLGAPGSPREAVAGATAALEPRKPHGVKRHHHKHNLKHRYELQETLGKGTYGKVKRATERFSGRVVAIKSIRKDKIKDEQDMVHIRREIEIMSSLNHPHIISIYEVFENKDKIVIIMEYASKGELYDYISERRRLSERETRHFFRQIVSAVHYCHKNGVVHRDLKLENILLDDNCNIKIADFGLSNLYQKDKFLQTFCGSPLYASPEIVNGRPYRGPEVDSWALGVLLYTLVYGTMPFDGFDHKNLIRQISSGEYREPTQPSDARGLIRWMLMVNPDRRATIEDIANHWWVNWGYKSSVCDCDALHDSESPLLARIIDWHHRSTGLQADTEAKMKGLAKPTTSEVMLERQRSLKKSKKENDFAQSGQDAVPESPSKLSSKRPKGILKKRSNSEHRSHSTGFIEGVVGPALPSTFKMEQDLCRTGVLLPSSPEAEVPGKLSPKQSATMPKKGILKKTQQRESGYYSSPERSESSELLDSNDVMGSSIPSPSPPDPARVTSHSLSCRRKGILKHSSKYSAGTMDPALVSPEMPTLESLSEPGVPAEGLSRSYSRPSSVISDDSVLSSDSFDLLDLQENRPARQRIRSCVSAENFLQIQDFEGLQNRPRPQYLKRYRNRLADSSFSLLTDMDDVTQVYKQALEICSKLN
Method: as §1

PAK2 = PAK2 (Homo sapiens, UniProt Q13177); assay: Kinase profiling; settings: 0.1 or 1 μM inhibitor; mean of triplicate
Method: as §1

PAK6 = PAK6 (Homo sapiens, UniProt Q9NQU5); assay: Kinase profiling; settings: 0.1 or 1 μM inhibitor; mean of triplicate
Method: as §1

PIM2 = PIM2 (Homo sapiens, UniProt Q9P1W9); assay: Kinase profiling; settings: 0.1 or 1 μM inhibitor; mean of triplicate
Method: as §1

PKCγ = PKCγ (Homo sapiens, UniProt P05129); assay: Kinase profiling; settings: 0.1 or 1 μM inhibitor; mean of triplicate
Method: as §1

PKCζ = PKCζ (Homo sapiens, UniProt Q05513); assay: Kinase profiling; settings: 0.1 or 1 μM inhibitor; mean of triplicate
Method: as §1

RIPK2 = RIPK2 (Homo sapiens, UniProt O43353); assay: Kinase profiling; settings: 0.1 or 1 μM inhibitor; mean of triplicate
Method: as §1

SIK2 = SIK2 (Homo sapiens, UniProt Q9H0K1); assay: Kinase profiling; settings: 0.1 or 1 μM inhibitor; mean of triplicate
Method: as §1

SIK3 = SIK3 (Homo sapiens, UniProt Q9Y2K2); assay: Kinase profiling; settings: 0.1 or 1 μM inhibitor; mean of triplicate
Method: as §1

TAO1 = TAO1 (Homo sapiens, UniProt Q7L7X3); assay: Kinase profiling; settings: 0.1 or 1 μM inhibitor; mean of triplicate
Method: as §1

TGFBR1 = TGFBR1 (Homo sapiens, UniProt P36897); assay: Kinase profiling; settings: 0.1 or 1 μM inhibitor; mean of triplicate
Method: as §1

TIE2 = TIE2 (Homo sapiens, UniProt Q02763); assay: Kinase profiling; settings: 0.1 or 1 μM inhibitor; mean of triplicate
Method: as §1

TLK1 = TLK1 (Homo sapiens, UniProt Q9UKI8); assay: Kinase profiling; settings: 0.1 or 1 μM inhibitor; mean of triplicate
Method: as §1

VEG-FR = VEG-FR (Homo sapiens, UniProt P17948); assay: Kinase profiling; settings: 0.1 or 1 μM inhibitor; mean of triplicate
Method: as §1

Sequence of PAK2 (Q13177 whole entry): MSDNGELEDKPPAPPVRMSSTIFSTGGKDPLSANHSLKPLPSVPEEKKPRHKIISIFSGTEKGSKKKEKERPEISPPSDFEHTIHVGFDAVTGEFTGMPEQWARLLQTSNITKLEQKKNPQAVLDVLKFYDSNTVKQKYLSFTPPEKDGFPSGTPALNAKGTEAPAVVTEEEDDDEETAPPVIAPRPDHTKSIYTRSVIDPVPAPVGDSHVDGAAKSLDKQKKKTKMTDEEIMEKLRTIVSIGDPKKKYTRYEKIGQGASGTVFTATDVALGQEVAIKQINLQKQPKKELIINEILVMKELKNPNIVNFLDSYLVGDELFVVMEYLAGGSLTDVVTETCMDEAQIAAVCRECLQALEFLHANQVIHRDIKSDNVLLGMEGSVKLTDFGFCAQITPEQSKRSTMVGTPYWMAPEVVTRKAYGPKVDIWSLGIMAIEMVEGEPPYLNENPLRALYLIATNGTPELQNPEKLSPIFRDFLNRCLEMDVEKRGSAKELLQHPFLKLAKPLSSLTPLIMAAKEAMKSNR
Sequence of MPSK1 (O75716 whole entry): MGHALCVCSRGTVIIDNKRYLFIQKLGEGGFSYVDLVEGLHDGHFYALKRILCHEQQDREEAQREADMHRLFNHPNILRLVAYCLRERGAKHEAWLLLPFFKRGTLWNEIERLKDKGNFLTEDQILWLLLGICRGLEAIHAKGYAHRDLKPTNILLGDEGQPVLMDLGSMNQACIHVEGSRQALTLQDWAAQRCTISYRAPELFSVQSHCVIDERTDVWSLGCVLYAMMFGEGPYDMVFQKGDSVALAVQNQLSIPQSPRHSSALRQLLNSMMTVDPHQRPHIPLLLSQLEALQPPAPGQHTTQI
Sequence of TIE2 (Q02763 23-1124): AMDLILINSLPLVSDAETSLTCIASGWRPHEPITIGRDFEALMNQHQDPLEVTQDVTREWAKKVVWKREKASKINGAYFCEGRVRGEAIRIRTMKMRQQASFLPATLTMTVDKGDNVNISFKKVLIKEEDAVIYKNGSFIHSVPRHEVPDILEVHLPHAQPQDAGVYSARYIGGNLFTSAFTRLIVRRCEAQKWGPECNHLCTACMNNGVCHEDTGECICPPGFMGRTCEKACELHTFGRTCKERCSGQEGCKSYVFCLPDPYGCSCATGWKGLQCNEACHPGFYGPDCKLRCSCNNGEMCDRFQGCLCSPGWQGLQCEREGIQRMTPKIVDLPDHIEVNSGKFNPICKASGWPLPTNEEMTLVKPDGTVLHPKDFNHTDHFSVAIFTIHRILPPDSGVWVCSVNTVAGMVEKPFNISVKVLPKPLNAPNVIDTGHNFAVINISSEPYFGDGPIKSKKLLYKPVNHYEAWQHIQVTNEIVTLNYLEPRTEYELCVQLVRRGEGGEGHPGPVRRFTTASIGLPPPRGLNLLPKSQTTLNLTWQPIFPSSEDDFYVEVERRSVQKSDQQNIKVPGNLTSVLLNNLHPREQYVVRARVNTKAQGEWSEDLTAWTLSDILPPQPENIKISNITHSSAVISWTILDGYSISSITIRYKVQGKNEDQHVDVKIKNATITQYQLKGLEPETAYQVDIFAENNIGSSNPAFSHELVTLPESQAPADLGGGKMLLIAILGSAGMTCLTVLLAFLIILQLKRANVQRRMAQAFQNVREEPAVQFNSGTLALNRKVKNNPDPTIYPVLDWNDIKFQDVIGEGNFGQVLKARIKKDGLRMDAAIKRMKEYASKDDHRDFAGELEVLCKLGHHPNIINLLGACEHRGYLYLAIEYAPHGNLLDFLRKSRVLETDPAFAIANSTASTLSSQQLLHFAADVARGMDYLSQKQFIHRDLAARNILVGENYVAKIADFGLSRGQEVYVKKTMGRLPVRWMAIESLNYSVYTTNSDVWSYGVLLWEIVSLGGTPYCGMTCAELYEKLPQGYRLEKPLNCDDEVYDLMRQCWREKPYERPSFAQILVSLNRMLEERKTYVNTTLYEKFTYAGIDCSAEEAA
Sequence of FGF-R1 (P11362 22-822): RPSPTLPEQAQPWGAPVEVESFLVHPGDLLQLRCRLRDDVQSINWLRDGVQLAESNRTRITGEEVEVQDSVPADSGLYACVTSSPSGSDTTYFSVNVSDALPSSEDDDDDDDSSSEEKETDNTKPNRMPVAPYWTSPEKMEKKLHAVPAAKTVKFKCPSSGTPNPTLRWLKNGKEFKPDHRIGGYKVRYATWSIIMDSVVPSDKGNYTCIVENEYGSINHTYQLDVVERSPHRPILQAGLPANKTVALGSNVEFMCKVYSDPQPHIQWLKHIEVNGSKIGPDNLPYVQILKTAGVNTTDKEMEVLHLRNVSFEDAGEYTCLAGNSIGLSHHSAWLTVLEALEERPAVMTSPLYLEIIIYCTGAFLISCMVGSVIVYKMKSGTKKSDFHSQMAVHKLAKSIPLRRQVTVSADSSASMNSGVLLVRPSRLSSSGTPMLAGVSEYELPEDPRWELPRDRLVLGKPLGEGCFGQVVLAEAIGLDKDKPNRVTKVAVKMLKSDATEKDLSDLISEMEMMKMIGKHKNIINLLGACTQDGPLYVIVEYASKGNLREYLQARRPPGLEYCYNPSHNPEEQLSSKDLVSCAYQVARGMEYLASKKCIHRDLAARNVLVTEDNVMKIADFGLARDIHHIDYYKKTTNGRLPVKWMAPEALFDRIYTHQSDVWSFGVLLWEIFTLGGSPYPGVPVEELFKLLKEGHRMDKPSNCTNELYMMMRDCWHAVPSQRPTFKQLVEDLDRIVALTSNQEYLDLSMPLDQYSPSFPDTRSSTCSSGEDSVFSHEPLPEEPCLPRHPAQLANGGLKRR
Sequence of EPH-B1 (P54762 18-984): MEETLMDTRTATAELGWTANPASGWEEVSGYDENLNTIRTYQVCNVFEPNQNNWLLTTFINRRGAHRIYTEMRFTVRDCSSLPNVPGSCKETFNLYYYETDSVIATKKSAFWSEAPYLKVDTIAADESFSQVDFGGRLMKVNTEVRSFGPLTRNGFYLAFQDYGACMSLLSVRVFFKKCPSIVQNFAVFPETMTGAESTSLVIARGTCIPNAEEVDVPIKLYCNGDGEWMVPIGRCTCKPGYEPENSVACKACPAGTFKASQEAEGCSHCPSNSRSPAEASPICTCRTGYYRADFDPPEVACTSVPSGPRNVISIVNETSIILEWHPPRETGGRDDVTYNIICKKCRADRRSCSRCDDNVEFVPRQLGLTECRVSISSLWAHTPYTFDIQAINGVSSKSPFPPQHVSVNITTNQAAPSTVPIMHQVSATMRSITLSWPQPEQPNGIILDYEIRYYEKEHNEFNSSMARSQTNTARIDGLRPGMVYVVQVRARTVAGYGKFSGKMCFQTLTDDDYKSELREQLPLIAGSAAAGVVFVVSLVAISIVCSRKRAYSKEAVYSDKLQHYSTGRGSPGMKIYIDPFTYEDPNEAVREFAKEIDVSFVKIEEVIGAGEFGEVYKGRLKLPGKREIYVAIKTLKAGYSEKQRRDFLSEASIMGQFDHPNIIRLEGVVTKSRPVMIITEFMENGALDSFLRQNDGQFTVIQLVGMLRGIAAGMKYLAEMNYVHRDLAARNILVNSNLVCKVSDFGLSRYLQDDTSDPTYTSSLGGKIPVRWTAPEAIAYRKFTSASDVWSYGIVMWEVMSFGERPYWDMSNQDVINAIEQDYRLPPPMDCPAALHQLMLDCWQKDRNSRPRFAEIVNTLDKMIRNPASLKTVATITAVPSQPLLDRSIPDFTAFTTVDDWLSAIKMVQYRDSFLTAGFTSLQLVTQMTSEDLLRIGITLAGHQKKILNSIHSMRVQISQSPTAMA
Sequence of PIM2 (Q9P1W9 whole entry): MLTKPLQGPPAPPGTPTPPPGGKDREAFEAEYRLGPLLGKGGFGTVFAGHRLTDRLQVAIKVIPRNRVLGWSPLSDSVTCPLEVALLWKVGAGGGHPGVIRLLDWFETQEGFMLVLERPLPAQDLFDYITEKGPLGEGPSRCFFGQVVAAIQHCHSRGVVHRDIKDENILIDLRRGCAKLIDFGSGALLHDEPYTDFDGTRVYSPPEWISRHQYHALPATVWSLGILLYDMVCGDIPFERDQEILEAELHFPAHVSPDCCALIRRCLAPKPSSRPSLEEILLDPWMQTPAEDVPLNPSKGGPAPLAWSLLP
Sequence of PAK6 (Q9NQU5 whole entry): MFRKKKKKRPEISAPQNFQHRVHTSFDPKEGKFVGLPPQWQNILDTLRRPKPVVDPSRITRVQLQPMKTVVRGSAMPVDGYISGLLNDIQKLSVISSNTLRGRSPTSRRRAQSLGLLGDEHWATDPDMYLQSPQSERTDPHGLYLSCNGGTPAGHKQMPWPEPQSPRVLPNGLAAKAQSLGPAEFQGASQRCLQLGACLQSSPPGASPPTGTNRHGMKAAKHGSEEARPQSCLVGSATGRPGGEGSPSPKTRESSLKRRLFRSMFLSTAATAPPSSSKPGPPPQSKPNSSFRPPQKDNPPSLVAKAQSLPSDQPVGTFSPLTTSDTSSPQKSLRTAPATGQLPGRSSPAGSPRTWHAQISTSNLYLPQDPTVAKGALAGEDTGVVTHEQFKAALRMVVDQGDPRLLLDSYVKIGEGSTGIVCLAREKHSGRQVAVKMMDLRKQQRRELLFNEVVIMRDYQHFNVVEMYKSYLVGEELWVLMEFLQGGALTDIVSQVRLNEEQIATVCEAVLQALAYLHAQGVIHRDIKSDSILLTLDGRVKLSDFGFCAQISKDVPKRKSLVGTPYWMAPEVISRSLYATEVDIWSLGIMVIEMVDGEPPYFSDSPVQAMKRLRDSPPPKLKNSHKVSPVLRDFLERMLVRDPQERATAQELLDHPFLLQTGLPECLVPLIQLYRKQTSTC
Sequence of NEK6 (Q9HC98 whole entry): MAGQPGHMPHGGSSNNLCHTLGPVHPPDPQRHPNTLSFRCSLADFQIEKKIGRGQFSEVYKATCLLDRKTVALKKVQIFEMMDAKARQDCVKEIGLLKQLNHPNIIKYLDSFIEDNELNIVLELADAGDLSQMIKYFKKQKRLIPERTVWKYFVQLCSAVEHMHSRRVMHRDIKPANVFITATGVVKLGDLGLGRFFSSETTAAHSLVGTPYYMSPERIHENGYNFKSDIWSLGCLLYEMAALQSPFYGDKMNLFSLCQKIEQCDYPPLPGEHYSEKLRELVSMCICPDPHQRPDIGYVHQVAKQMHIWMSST

Row | Compound | Selectivity over the other kinases of the panel (in words) [1] | ASK1 activity, percentage of DMSO control (ASK1) | CAMKKβ activity, percentage of DMSO control (CAMKKβ) | EPH-B1 activity, percentage of DMSO control (EPH-B1) | FGF-R1 activity, percentage of DMSO control (FGF-R1) | HIPK1 activity, percentage of DMSO control (HIPK1) | HIPK3 activity, percentage of DMSO control (HIPK3) | IGF-1R activity, percentage of DMSO control (IGF-1R) | IKKε activity, percentage of DMSO control (IKKε) | IRAK4 activity, percentage of DMSO control (IRAK4) | MAP4K3 activity, percentage of DMSO control (MAP4K3) | MAP4K5 activity, percentage of DMSO control (MAP4K5) | MEKK1 activity, percentage of DMSO control (MEKK1) | MKK1 activity, percentage of DMSO control (MKK1) | MLK1 activity, percentage of DMSO control (MLK1) | MNK1 activity, percentage of DMSO control (MNK1) | MPSK1 activity, percentage of DMSO control (MPSK1) | NEK6 activity, percentage of DMSO control (NEK6) | NUAK1 activity, percentage of DMSO control (NUAK1) | PAK2 activity, percentage of DMSO control (PAK2) | also measured
1 | CN1C(=O)c2ccccc2N(C)c2nc(Nc3cnn(C4CCNCC4)c3)ncc21 [XMD-17-51] | less selective | – | – | – | – | – | – | – | – | – | – | – | – | – | – | – | – | – | – | – | Inhibition of AMPK in profiling (in words) (AMPK; 1 μM): inhibited
2 | Cc1nc(Nc2cnn(C3CCNCC3)c2)nc2c1N(C)C(=O)c1cc3ccccc3cc1N2C [HTH-01-015] | did not markedly suppress | 105 percentage | 87 percentage | 97 percentage | 105 percentage | 107 percentage | 96 percentage | 133 percentage | 85 percentage | 103 percentage | 127 percentage | 106 percentage | 110 percentage | 113 percentage | 102 percentage | 102 percentage | 103 percentage | 99 percentage | 11 percentage | 125 percentage | AMPK activity, percentage of DMSO control (AMPK; 0.1 or 1 μM inhibitor, mean of triplicate): 127 percentage; PAK6 activity, percentage of DMSO control (PAK6): 95 percentage; PIM2 activity, percentage of DMSO control (PIM2): 106 percentage; PKCγ activity, percentage of DMSO control (PKCγ): 107 percentage; PKCζ activity, percentage of DMSO control (PKCζ): 98 percentage; RIPK2 activity, percentage of DMSO control (RIPK2): 88 percentage; SIK2 activity, percentage of DMSO control (SIK2): 112 percentage; SIK3 activity, percentage of DMSO control (SIK3): 109 percentage; TAO1 activity, percentage of DMSO control (TAO1): 123 percentage; TGFBR1 activity, percentage of DMSO control (TGFBR1): 102 percentage; TIE2 activity, percentage of DMSO control (TIE2): 84 percentage; TLK1 activity, percentage of DMSO control (TLK1): 106 percentage; VEG-FR activity, percentage of DMSO control (VEG-FR): 97 percentage
3 | CN1C(=O)c2cc3ccccc3cc2N(C)c2nc(Nc3cnn(C4CCNCC4)c3)ncc21 [XMD-18-42] | less selective | – | – | – | – | – | – | – | – | – | – | – | – | – | – | – | – | – | – | – | –
4 | CCC(=O)Nc1cccc(Oc2nc(Nc3ccc(N4CCN(C)CC4)cc3OC)ncc2Cl)c1 [WZ4003] | did not significantly inhibit | 107 percentage | 44 percentage | 98 percentage | 66 percentage | 103 percentage | 91 percentage | 33 percentage | 104 percentage | 92 percentage | 111 percentage | 108 percentage | 91 percentage | 98 percentage | 69 percentage | 104 percentage | 107 percentage | 79 percentage | 6 percentage | 92 percentage | PAK6 activity, percentage of DMSO control (PAK6): 104 percentage; PIM2 activity, percentage of DMSO control (PIM2): 101 percentage; PKCγ activity, percentage of DMSO control (PKCγ): 103 percentage; PKCζ activity, percentage of DMSO control (PKCζ): 86 percentage; RIPK2 activity, percentage of DMSO control (RIPK2): 105 percentage; SIK2 activity, percentage of DMSO control (SIK2): 70 percentage; SIK3 activity, percentage of DMSO control (SIK3): 102 percentage; TAO1 activity, percentage of DMSO control (TAO1): 101 percentage; TGFBR1 activity, percentage of DMSO control (TGFBR1): 102 percentage; TIE2 activity, percentage of DMSO control (TIE2): 94 percentage; TLK1 activity, percentage of DMSO control (TLK1): 91 percentage; VEG-FR activity, percentage of DMSO control (VEG-FR): 74 percentage
